# Measured values as given in patent US20220031684A1, “PROPHYLACTIC EFFICACY OF SEROTONIN 4 RECEPTOR AGONISTS AGAINST STRESS” (THE TRUSTEES OF COLUMBIA UNIVERSITY IN THE CITY OF NEW YORK, priority 2019, published 2022).
# Counter-ions that a name gives are not always drawn.
# Legend:
# C57BL/6NTac mice = assay: Novelty-suppressed feeding (NSF) in CORT model; format: in vivo; settings: male C57BL/6NTac; Flx 18 mg/kg/day or RS-67,333 1.5 mg/kg/day for 3 weeks prior to CORT
# Method: This chronic CORT elevation dysregulates the hypothalamic-pituitary-adrenal axis (HPA) in a manner similar to that observed in clinical depression. The dose and duration of CORT treatment was selected based on previous studies. CORT (35 μg/ml, equivalent to about 5 mg/kg/day) dissolved in 0.45% hydroxypropyl-o-cyclodextrin (0-CD) or vehicle (VEH) (0.45% j-CD) was available ad libitum in the drinking water in opaque bottles to protect it from light. VEH- and CORT-treated water was changed every 3 days to prevent possible degradation. Contextual Fear Conditioning (CFC): A 3-shock CFC procedure was administered as previously published. Briefly, mice were placed into context A and administered 3 2-s shocks (0.75 mA) at 180 s, 240 s or 300 s following placement into context A. Mice were removed from the context 15 s following the termination of shock (at 317 s). For context retrieval, mice were placed back into context A for 300 s. Electrophysiology: Electrophysiology was conducted as previously described. Statistical Analysis: Results from data analyses are expressed as means±SEM. Alpha was set to 0.05 for all analyses. Data were analyzed using GraphPad Prism v7.0 or v8.0. For all experiments, unless otherwise noted, one- or two-way ANOVAs with repeated-measures were applied to the data as appropriate. […] Videos were scored using ANY-maze behavior tracking software (Stoelting, Wood Dale, Ill.). […]
# BALB/cJRj mice = assay: Novelty suppressed feeding (NSF), acute anxiolytic-like effect; format: in vivo; settings: for lag for feeding in the NSF: single dose 1.5 mg/kg, 72 hours after the injection
# Method: RS67333 (1.5 mg/kg, i.p.), diazepam (1.5 mg/kg, i.p.), fluoxetine (18 mg/kg, i.p.) were injected 45 min before testing in the Elevated Plus Maze (EPM), the Novelty Suppressed Feeding (NSF) or the Open Field (OF) in three independent cohorts of male BALB/cJRj mice.
# To ensure the selectivity of the anxiolytic-like effects of RS67333, in a new cohort of male BALB/cJRj mice, GR125487 (1.0 mg/kg, i.p.) dissolved in 0.9% NaCl solution, was injected 15 minutes before RS67333 administration (1.5 mg/kg, i.p.). EPM or NSF occurred 45 min after RS67333 administration (A-S1). Behavioral consequences of the co-administration of GR125487+RS67333 were compared to RS67333 alone, diazepam (1.5 mg/kg, i.p.) fluoxetine (18 mg/kg, i.p.) and vehicle groups (0.9% saline solution, i.p.).
# For mPFC drug infusion, two bilateral cannulae (75 μm-diameter silica capillary tubing inserted in 27G stainless steel catheter) were implanted in the mPFC [stereotaxic coordinates in mm from bregma: A=+2.10, L=±0.50, V=−2.60, A, anterior; L, lateral; and V, ventral, according to (A-S10)] under anesthesia (chloral hydrate, 400 mg/kg, i.p.). […] Diazepam (1.5 mg/kg) was used as a positive control.
# The NSF is a conflict test that elicits competing motivations: the drive to eat and the fear of venturing into the center of a brightly lit arena. The latency to begin eating is used as an index of anxiety/depression-like behavior, because classical anxiolytic drugs as well as chronic antidepressants decrease this measure. The NSF test was carried out during a 10 min period as previously described (A-S12). Briefly, the testing apparatus consisted of a plastic box (50×50×20 cm), the floor of which was covered with approximately 2 cm of wooden bedding. Twenty-four hours prior to behavioral testing, all food was removed from the home cage. At the time of testing, a single pellet of food (regular chow) was placed on a white paper platform positioned in the center of the box. Each animal was placed in a corner of the box, and a stopwatch was immediately started. The latency to eat (defined as the mouse sitting on its haunches and biting the pellet with the use of forepaws) was timed. Immediately afterwards, the animal was transferred to its home cage, and the amount of food consumed by the mouse in the subsequent 5 min was measured, serving as a control for change in appetite as a possible confounding factor.
# sigma 1 = sigma 1 (Homo sapiens, UniProt Q99720); settings: cited from earlier work
# Sequence of sigma 1 (Q99720 whole entry): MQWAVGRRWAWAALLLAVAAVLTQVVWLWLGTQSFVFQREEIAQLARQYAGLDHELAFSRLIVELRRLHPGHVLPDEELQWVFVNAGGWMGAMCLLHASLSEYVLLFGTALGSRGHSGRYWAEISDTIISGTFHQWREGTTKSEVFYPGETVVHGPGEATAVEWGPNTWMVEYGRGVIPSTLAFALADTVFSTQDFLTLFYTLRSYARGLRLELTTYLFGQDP
# sigma 2 = sigma 2 (Homo sapiens, UniProt Q5BJF2); settings: cited from earlier work
# Sequence of sigma 2 (Q5BJF2 whole entry): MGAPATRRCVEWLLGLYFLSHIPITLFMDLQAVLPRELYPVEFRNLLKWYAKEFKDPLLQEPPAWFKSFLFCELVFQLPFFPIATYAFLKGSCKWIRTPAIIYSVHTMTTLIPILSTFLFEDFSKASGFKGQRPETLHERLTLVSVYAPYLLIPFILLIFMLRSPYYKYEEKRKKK
# [1] = biological target: other neurotransmitter receptors; settings: except sigma receptors; cited from earlier work
Structure (SMILES),latency to approach the food pellet (NSF) vs CORT+Veh (C57BL/6NTac mice),latency to feed (NSF) vs vehicle (BALB/cJRj mice; intra-mPFC infusion of RS67333 45 min before testing),"latency to feed (NSF) vs vehicle (BALB/cJRj mice; male BALB/cJRj, i.p. 45 min before testing, RS67333 1.5, diazepam 1.5, fluoxetine 18 mg/kg)",lag for feeding in the NSF (BALB/cJRj mice),pKi sigma 1 (sigma 1),pKi sigma 2 (sigma 2),pKi for other neurotransmitter receptors [1],"latency to feed (NSF) vs vehicle (BALB/cJRj mice; male BALB/cJRj, i.p. 45 min before testing, RS67333 1.5, diazepam 1.5, fluoxetine 18 mg/kg, hydrochloride)"
"CCCCN1CCC(CCC(=O)c2cc(Cl)c(N)cc2OC)CC1.Cl [RS-67,333, 1-(4-amino-5-chloro-2-methoxyphenyl)-3-[1(n-butyl)-4-piperidinyl]-1-propanone HCl]",significantly decreased latency,decreased latency to feed,decreased the latency to feed,reduced the lag for feeding,8.9,8.0,less than 6.7,
"CN1C(=O)CN=C(c2ccccc2)c2cc(Cl)ccc21 [diazepam, Diazepam hydrochloride]",,,,have not been able to observe any long-term activity,,,,decreased the latency to feed
